Legend:
P. aeruginosa PPK1 = molecular target: T1, P. aeruginosa PPK1 (Pseudomonas aeruginosa, UniProt P0DP44); assay: PPK1 polyP synthesis from ATP, toluidine blue detection; format: biochemical
T1 construct: His tag (cleaved yes); made in house
Method: Compounds were synthesized as outlined in Text S1. Compounds were dissolved in DMSO to make 10 mM stocks and added to a 200 μM final concentration for initial screening. The screen for PPK1 inhibitors was conducted by measuring polyP synthesis activity as described previously ([12]), with the exception of the polyP detection method (see Text S1). […] One-hundred-microliter reaction mixtures were incubated at 37°C for 30 min, after which time 50-μl aliquots were withdrawn and added to 1,000 μl of 6-mg/liter toluidine blue dissolved in 40 mM acetic acid to quench the reaction and quantify polyP ([27]). The A630/530 nm ratio was then recorded, and the values obtained were corrected by subtracting the corresponding blanks (all ingredients except enzyme). The amount of polyP synthesized was calculated using a standard curve (Fig. S1A). Any compounds showing 50% or greater reduction in activity relative to the DMSO control were subjected to further IC50 analysis.
(§1) All IC50 and kinetic assay mixtures contained equimolar amounts (275 nM) of PPK to ensure valid comparison between different enzymes. PolyP synthesis activity (for PPK1 and PPK2B) was assayed using the reaction buffer and conditions described above. ATP concentration was varied as indicated for kinetic experiments. Curves were fit using GraphPad Prism V9.

P. aeruginosa PPK2B = molecular target: T2, P. aeruginosa PPK2B (Pseudomonas aeruginosa, UniProt Q9I154); assay: PPK2B polyP synthesis from ATP, toluidine blue detection; format: biochemical; details: polyP synthesis from ATP; 275 nM enzyme; read-out: IC50 PPK2B
T2 construct: MBP (N, cleaved yes); His tag (N, cleaved yes); made in house; host or cells: E. coli BL21(DE3)
Method: Compounds were synthesized as outlined in Text S1. Compounds were dissolved in DMSO to make 10 mM stocks and added to a 200 μM final concentration for initial screening. The screen for PPK1 inhibitors was conducted by measuring polyP synthesis activity as described previously ([12]), with the exception of the polyP detection method (see Text S1). The reaction mix contained 50 mM HEPES-KOH, pH 7.5, 40 mM (NH4)2SO4, 4 mM MgSO4, 60 mM creatine phosphate, 0.0625 mg/ml creatine kinase (Sigma; from rabbit muscle), 5 mM ATP, and 275 nM PPK1 (added last). One-hundred-microliter reaction mixtures were incubated at 37°C for 30 min, after which time 50-μl aliquots were withdrawn and added to 1,000 μl of 6-mg/liter toluidine blue dissolved in 40 mM acetic acid to quench the reaction and quantify polyP ([27]). The A630/530 nm ratio was then recorded, and the values obtained were corrected by subtracting the corresponding blanks (all ingredients except enzyme). The amount of polyP synthesized was calculated using a standard curve (Fig. S1A). Any compounds showing 50% or greater reduction in activity relative to the DMSO control were subjected to further IC50 analysis.
as §1

P. aeruginosa PA14 = assay: Pyoverdine quantification (absorbance at 403 nm); format: cell-based, Pseudomonas aeruginosa
Method: Fifty-milliliter P. aeruginosa cultures in 2.5% (wt/vol) LB (Miller; Bioshop) were grown to stationary phase in 125-ml Erlenmeyer flasks with 180-rpm shaking at 37°C for 18 h. Cultures were centrifuged at 18,000 rpm for 30 min to clarify the supernatant, which was then filter sterilized. Pyoverdine was quantified spectrophotometrically at 403 nm as described previously ([55]). Pyocyanin was extracted via chloroform and treated with HCl to yield a red product that was quantified at 520 nm ([55]). To account for any colorimetric interference by inhibitors, cell-free blank readings were subtracted from each sample.

P. aeruginosa [1] = assay: Antibiotic synergy in the C. elegans LK model; format: in vivo, Caenorhabditis elegans; details: for protection of C. elegans in combination with antibiotic: LK assay
Method: Assessment of antibiotic synergy in the C. elegans model was adapted from previously described protocols ([25]). Briefly, glp-4 C. elegans worms were incubated at 25°C with P. aeruginosa and the indicated amount of gallein or DMSO in LK medium as described above. After 24 h, antibiotics were added. After another 24 h, C. elegans survival was scored as described above.

P. aeruginosa [2] = assay: microbe, parasite or virus in culture; format: cell-based, Pseudomonas aeruginosa; details: 100 μM gallein, LK medium
C. elegans = assay: Toxicity toward C. elegans (OP50 + gallein curves); format: in vivo, Caenorhabditis elegans; details: 100 μM
Method: We tested both liquid killing (LK) and solid-phase slow killing (SK) models of infection, as these two assays are reliant upon distinct mechanisms of P. aeruginosa pathogenesis ([34], [35]). […]. Wild-type N2 C. elegans and the glp-4 conditionally sterile mutant strain were obtained from the Caenorhabditis Genetics Center. Liquid killing assays were conducted using glp-4 mutant worms as described previously ([35]), with the exception of survival being scored manually under a Zeiss light microscope instead of via Sytox Orange staining. Nematodes were scored as dead when they no longer moved when tapped. Solid killing was conducted using glp-4 as described previously ([34]), with the indicated concentration of inhibitor impregnated into the SK agar. Bacterial CFU accumulation in WT N2 worms was quantified as described previously ([56]). Briefly, age-synchronized embryos were spotted onto bacterium-seeded nematode growth medium (NGM) agar plates impregnated with inhibitor or DMSO. Embryos were incubated at 25°C for 3 days, after which point adult worms were harvested, washed, lysed, and enumerated for CFU.

T1 sequence (P0DP44 whole entry): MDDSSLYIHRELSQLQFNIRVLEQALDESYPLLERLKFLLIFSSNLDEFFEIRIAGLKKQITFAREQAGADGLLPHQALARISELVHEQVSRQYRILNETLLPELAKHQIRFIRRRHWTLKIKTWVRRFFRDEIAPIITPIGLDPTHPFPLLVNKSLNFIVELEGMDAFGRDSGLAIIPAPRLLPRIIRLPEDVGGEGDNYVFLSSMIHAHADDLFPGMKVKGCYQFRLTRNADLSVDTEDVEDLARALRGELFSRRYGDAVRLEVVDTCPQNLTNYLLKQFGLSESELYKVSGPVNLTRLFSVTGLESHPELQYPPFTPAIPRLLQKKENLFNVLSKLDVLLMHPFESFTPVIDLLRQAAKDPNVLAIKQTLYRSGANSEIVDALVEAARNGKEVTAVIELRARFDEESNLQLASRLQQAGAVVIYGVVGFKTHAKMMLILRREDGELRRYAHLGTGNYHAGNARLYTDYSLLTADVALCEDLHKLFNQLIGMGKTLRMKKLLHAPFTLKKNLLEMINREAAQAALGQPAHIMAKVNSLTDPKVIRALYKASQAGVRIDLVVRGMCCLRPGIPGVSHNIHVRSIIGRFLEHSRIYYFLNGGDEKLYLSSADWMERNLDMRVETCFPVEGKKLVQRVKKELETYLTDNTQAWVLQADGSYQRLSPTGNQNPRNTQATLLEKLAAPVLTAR
T2 sequence (Q9I154 whole entry): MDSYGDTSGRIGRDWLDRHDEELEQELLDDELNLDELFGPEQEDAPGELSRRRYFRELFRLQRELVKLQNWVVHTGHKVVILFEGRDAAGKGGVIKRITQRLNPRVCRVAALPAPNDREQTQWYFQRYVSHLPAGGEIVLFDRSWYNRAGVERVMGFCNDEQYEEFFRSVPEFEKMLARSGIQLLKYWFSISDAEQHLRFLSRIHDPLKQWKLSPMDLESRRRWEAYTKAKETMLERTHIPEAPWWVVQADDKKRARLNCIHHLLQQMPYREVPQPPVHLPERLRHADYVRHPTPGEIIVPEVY

Compound: O=C1OC2(c3ccccc31)c1ccc(O)c(O)c1Oc1c2ccc(O)c1O [RT4 (gallein), gallein]
- PPK1 activity in the absence of ATP regeneration (P. aeruginosa PPK1; no creatine kinase/creatine phosphate, low-micromolar gallein): reduced both PPK1 activity rate and equilibrium polyP levels
- IC50 (P. aeruginosa PPK1; polyP synthesis from ATP, 275 nM enzyme): 17 ± 1 µM
- IC50 (P. aeruginosa PPK2B): 20 ± 2 µM
- pyoverdine production (P. aeruginosa PA14; WT, Δppk1 and Δppk2 strains): reproduced the marked pyoverdine and pyocyanin defects observed in the ΔpolyP strain
- Pyoverdine, Mean Diff. (P. aeruginosa PA14; WT: DMSO control vs 100 µM gallein): 38.33
- pyoverdine production (P. aeruginosa PA14; ΔpolyP strain): no significant decrease of either toxin
- Pyoverdine, Mean Diff. (P. aeruginosa PA14; Δppk1, 2a, 2b, 2c: DMSO control vs 100 µM gallein): -3.233
- Pyoverdine, Mean Diff. (P. aeruginosa PA14; Δppk1: DMSO control vs 100 µM gallein): 17.13
- Pyoverdine, Mean Diff. (P. aeruginosa PA14; Δppk2a, 2b, 2c: DMSO control vs 100 µM gallein): 45.33
- C. elegans antibiotic synergy, Mean Diff. (P. aeruginosa [1]; Cipro (0.75 µg/mL) DMSO vs Cipro (0.75 µg/mL) + 100 µM gallein): -47.1
- protection of C. elegans in combination with antibiotic (P. aeruginosa [1]; in combination with ciprofloxacin): achieved greater protection of C. elegans than did gallein or antibiotics alone
- protection of C. elegans in combination with antibiotic (P. aeruginosa [1]; in combination with tetracycline): achieved greater protection of C. elegans than did gallein or antibiotics alone
- C. elegans antibiotic synergy, Mean Diff. (P. aeruginosa [1]; No antibiotic DMSO vs Cipro (0.75 µg/mL) + 100 µM gallein): -35.08
- C. elegans antibiotic synergy, Mean Diff. (P. aeruginosa [1]; No antibiotic DMSO vs No antibiotic + 100 µM gallein): -16.19
- C. elegans antibiotic synergy, Mean Diff. (P. aeruginosa [1]; No antibiotic DMSO vs Tet (10 µg/mL) + 100 µM gallein): -38.97
- C. elegans antibiotic synergy, Mean Diff. (P. aeruginosa [1]; Tet (10 µg/mL) DMSO vs Tet (10 µg/mL) + 100 µM gallein): -49.51
- effect on the MIC of tetracycline or ciprofloxacin (P. aeruginosa [2]): did not alter the MIC
- toxicity toward C. elegans (C. elegans): no gallein toxicity toward C. elegans was observed

From article PMC8262977, “A Dual-Specificity Inhibitor Targets Polyphosphate Kinase 1 and 2 Enzymes To Attenuate Virulence of Pseudomonas aeruginosa” (mBio, 2021)
